Paper PMC4579345 (Journal of acquired immune deficiency syndromes (1999), 2015)
Where two headings read alike, the source gives them in different places.

What was measured:
[1] = Ritonavir pharmacokinetic parameters during pregnancy and postpartum; type: in vivo, human; conditions: for AUC(0-t): AUC0-12, twice daily dosing; for AUC(0-t) / Cmax: median (interquartile range)
[2] = Cord blood and maternal plasma darunavir concentrations at delivery; type: in vivo, human
[3] = Clinical and laboratory toxicity monitoring of mothers and infants; conditions: human, in vivo
HIV-1 RNA = assay: Maternal HIV RNA at delivery and infant HIV infection status; type: in vivo; conditions: median (range)
wild type HIV = conditions: cited from earlier work
[4] = cited from earlier work; for Mean decrease in darunavir AUC: third trimester, ref 16 (Colbers, et al)
HIV RNA = conditions: cited from earlier work
[5] = mean (95%CI), ref 16 (Colbers, et al), cited from earlier work
[6] = of 43 subjects, limit 0.09 μg/mL

## CC(C)c1nc(CN(C)C(=O)N[C@H](C(=O)N[C@@H](Cc2ccccc2)C[C@H](O)[C@H](Cc2ccccc2)NC(=O)OCc2cncs2)C(C)C)cs1 [ritonavir]
[1]; female, human, plasma, oral, postpartum
  AUC(0-t): 5600 ng·h/mL
[1]; female, human, plasma, oral, second trimester
  AUC(0-t): 3900 ng·h/mL
[1]; female, human, plasma, oral, third trimester
  AUC(0-t): 3800 ng·h/mL
[1]; female, human, plasma, oral, Cmax, once daily dosing, postpartum
  Cmax: 640 ng/mL
[1]; female, human, plasma, oral, Cmax, twice daily dosing, second trimester
  Cmax: 470 ng/mL
[1]; female, human, plasma, oral, Cmax, twice daily dosing, third trimester
  Cmax: 460 ng/mL
[1]; in vivo
  Ritonavir exposure during pregnancy: reduced
[1]; once daily dosing, second trimester
  Cmax: 290 ng/mL
[1]; once daily dosing, third trimester
  Cmax: 270 ng/mL

## CC(C)CN(C[C@@H](O)[C@H](Cc1ccccc1)NC(=O)O[C@H]1CO[C@H]2OCC[C@H]21)S(=O)(=O)c1ccc(N)cc1 [darunavir]
[2]; median (range), samples above the limit of quantitation
  Maternal plasma delivery concentration: 1.98 µg/mL
[2]; [6]
  Cord blood samples with concentration below the assay limit of quantitation: 15
  Maternal samples with concentration below the assay limit of quantitation: 11
[3]
  Subjects indicating side effects of darunavir as a reason for discontinuation: No subjects
  Tolerability during pregnancy and postpartum: well tolerated
HIV-1 RNA; Combined N=66
  HIV-1 RNA at delivery: <50 (<50 - 66,142) copies/mL
HIV-1 RNA; Once Daily Dosing N=32
  HIV-1 RNA at delivery: <50 (<50 - 35,313) copies/mL
HIV-1 RNA; Twice Daily Dosing N=34
  HIV-1 RNA at delivery: 51 (<50 - 66,142) copies/mL
Wild type HIV
  EC50 for wild type HIV: 0.06 μ/mL
[4]; 6 women, twice daily dosing
  Mean decrease in darunavir AUC: 34%
[4]; 14 women dosed twice daily, second and third trimesters, ref 15 (Zorrilla, et al)
  Decrease in darunavir AUC: 17-24%
[4]; 18 women, once daily dosing
  Mean decrease in darunavir AUC: 22%
HIV RNA; 12 mothers in the Zorrilla study who remained on therapy at delivery, 15 mothers in the Colbers study
  Infected infants: no infected infants
HIV RNA; once daily dosing, ref 24 (Colbers, et al)
  Women with HIV RNA below 1000 copies/mL approaching delivery: 93%
HIV RNA; twice daily dosing, ref 15 (Zorrilla, et al)
  Subjects with detectable HIV RNA (>50 copies/mL) during pregnancy: 3 of 14
[5]; 14 women postpartum
  Free fraction: 10%
[5]; 19 women in the third trimester
  Free fraction: 12%
